# Results published in patent US20260027116A1, “Methods of Treating Chronic Graft-Versus-Host Disease Following Allogeneic Hematopoietic Stem Cell Transplantation” (Kadmon Corporation, LLC, priority 2022, published 2026).
# What was measured:
# [1] = test system: lung function; test: Example 1: percent predicted FVC change from baseline; format: in vivo, human; conditions: mean (SD)
# Description: Change From Baseline in Percent Predicted Forced Vital Capacity (FVC) at Each Specified Time Points. FVC was the total amount of air (in liters) exhaled from the lungs during the lung function test measured by spirometer which assessed the change in lung function related to the disease status. Baseline value was defined as valid and last non-missing value obtained within 28 days prior to participant receiving first study medication. EOT visit was performed within 3 days after the participant's last dose of study drug. […] Analysis was performed on mITT population. Here, ‘number analyzed’=participants with available data for each specified category. Here, ‘0’ in the number analyzed field signifies that none of the participants were available for the analysis at the specified time points.
# [2] = test system: cGVHD symptoms; test: Example 1: Global Severity Rating (GSR); format: in vivo, human
# Description: Maximal Improvement from Baseline in Global Severity Rating (GSR) by Clinician-reported cGVHD Assessment. […] The response was defined using the scores from 9 organs: skin, eyes, mouth, esophagus, upper gastrointestinal (GI) track, lower GI tract, liver, lungs, and joints and fascia plus GSR. End of treatment (EOT) visit was performed within 3 days after the participant's last dose of study drug. […] Analysis was performed on mITT population.
smiles,measurement,setting,value
"CC(C)NC(=O)COc1cccc(-c2nc(Nc3ccc4[nH]ncc4c3)c3ccccc3n2)c1 [Belumosudil, 2-{3-[4-(1H-indazol-5-ylamino)-2-quinazolinyl]phenoxy}-N-(propan-2-yl) acetamide]",Change From Baseline in Percent Predicted Forced Vital Capacity (FVC),"[1]; Cohort 2: 200 mg BID, Cycle 31, Day 1",−15.5 (7.8) percent predicted FVC
same,Change From Baseline in Percent Predicted Forced Vital Capacity (FVC),"[1]; Cohort 2: 200 mg BID, Cycle 33, Day 1",−17.5 (7.8) percent predicted FVC
same,Change From Baseline in Percent Predicted Forced Vital Capacity (FVC),"[1]; Cohort 2: 200 mg BID, Cycle 35, Day 1",−15.0 (11.3) percent predicted FVC
same,Change From Baseline in Percent Predicted Forced Vital Capacity (FVC),"[1]; Cohort 2: 200 mg BID, EOT",−8.4 (9.2) percent predicted FVC
same,Change From Baseline in Percent Predicted Forced Vital Capacity (FVC),"[1]; Cohort 3: 400 mg QD, Cycle 2, Day 1",−5.5 (9.9) percent predicted FVC
same,Change From Baseline in Percent Predicted Forced Vital Capacity (FVC),"[1]; Cohort 3: 400 mg QD, Cycle 3, Day 1",−3.0 (6.7) percent predicted FVC
same,Change From Baseline in Percent Predicted Forced Vital Capacity (FVC),"[1]; Cohort 3: 400 mg QD, Cycle 4, Day 1",−0.2 (8.6) percent predicted FVC
same,Change From Baseline in Percent Predicted Forced Vital Capacity (FVC),"[1]; Cohort 3: 400 mg QD, Cycle 5, Day 1",1.6 (6.3) percent predicted FVC
same,Change From Baseline in Percent Predicted Forced Vital Capacity (FVC),"[1]; Cohort 3: 400 mg QD, Cycle 6, Day 1",0.8 (9.5) percent predicted FVC
same,Change From Baseline in Percent Predicted Forced Vital Capacity (FVC),"[1]; Cohort 3: 400 mg QD, Cycle 7, Day 1",2.3 (9.7) percent predicted FVC
same,Change From Baseline in Percent Predicted Forced Vital Capacity (FVC),"[1]; Cohort 3: 400 mg QD, Cycle 8, Day 1",0.4 (8.9) percent predicted FVC
same,Change From Baseline in Percent Predicted Forced Vital Capacity (FVC),"[1]; Cohort 3: 400 mg QD, Cycle 9, Day 1",−0.8 (9.5) percent predicted FVC
same,Change From Baseline in Percent Predicted Forced Vital Capacity (FVC),"[1]; Cohort 3: 400 mg QD, Cycle 10, Day 1",4.7 (4.9) percent predicted FVC
same,Change From Baseline in Percent Predicted Forced Vital Capacity (FVC),"[1]; Cohort 3: 400 mg QD, Cycle 11, Day 1",−4.4 (12.0) percent predicted FVC
same,Change From Baseline in Percent Predicted Forced Vital Capacity (FVC),"[1]; Cohort 3: 400 mg QD, Cycle 12, Day 1",0.7 (5.8) percent predicted FVC
same,Change From Baseline in Percent Predicted Forced Vital Capacity (FVC),"[1]; Cohort 3: 400 mg QD, Cycle 13, Day 1",−4.9 (9.8) percent predicted FVC
same,Change From Baseline in Percent Predicted Forced Vital Capacity (FVC),"[1]; Cohort 3: 400 mg QD, Cycle 14, Day 1",−2.7 (7.1) percent predicted FVC
same,Change From Baseline in Percent Predicted Forced Vital Capacity (FVC),"[1]; Cohort 3: 400 mg QD, Cycle 15, Day 1",−4.8 (11.5) percent predicted FVC
same,Change From Baseline in Percent Predicted Forced Vital Capacity (FVC),"[1]; Cohort 3: 400 mg QD, Cycle 16, Day 1",−6.5 (6.5) percent predicted FVC
same,Change From Baseline in Percent Predicted Forced Vital Capacity (FVC),"[1]; Cohort 3: 400 mg QD, Cycle 17, Day 1",−5.6 (12.8) percent predicted FVC
same,Change From Baseline in Percent Predicted Forced Vital Capacity (FVC),"[1]; Cohort 3: 400 mg QD, Cycle 18, Day 1",4.0 (4.0) percent predicted FVC
same,Change From Baseline in Percent Predicted Forced Vital Capacity (FVC),"[1]; Cohort 3: 400 mg QD, Cycle 19, Day 1",0.8 (5.1) percent predicted FVC
same,Change From Baseline in Percent Predicted Forced Vital Capacity (FVC),"[1]; Cohort 3: 400 mg QD, Cycle 20, Day 1",−2.0 (5.6) percent predicted FVC
same,Change From Baseline in Percent Predicted Forced Vital Capacity (FVC),"[1]; Cohort 3: 400 mg QD, Cycle 21, Day 1",−6.6 (17.0) percent predicted FVC
same,Change From Baseline in Percent Predicted Forced Vital Capacity (FVC),"[1]; Cohort 3: 400 mg QD, Cycle 22, Day 1",−6.0 (8.5) percent predicted FVC
same,Change From Baseline in Percent Predicted Forced Vital Capacity (FVC),"[1]; Cohort 3: 400 mg QD, Cycle 23, Day 1",−1.8 (10.6) percent predicted FVC
same,Change From Baseline in Percent Predicted Forced Vital Capacity (FVC),"[1]; Cohort 3: 400 mg QD, Cycle 24, Day 1",−15.0 (—) percent predicted FVC
same,Change From Baseline in Percent Predicted Forced Vital Capacity (FVC),"[1]; Cohort 3: 400 mg QD, Cycle 25, Day 1",−1.3 (11.7) percent predicted FVC
same,Change From Baseline in Percent Predicted Forced Vital Capacity (FVC),"[1]; Cohort 3: 400 mg QD, Cycle 27, Day 1",−4.0 (21.2) percent predicted FVC
same,Change From Baseline in Percent Predicted Forced Vital Capacity (FVC),"[1]; Cohort 3: 400 mg QD, Cycle 29, Day 1",6.0 (1.4) percent predicted FVC
same,Change From Baseline in Percent Predicted Forced Vital Capacity (FVC),"[1]; Cohort 3: 400 mg QD, Cycle 31, Day 1",−4.0 (—) percent predicted FVC
same,Change From Baseline in Percent Predicted Forced Vital Capacity (FVC),"[1]; Cohort 3: 400 mg QD, Cycle 35, Day 1",−3.0 (—) percent predicted FVC
same,Change From Baseline in Percent Predicted Forced Vital Capacity (FVC),"[1]; Cohort 3: 400 mg QD, Cycle 36, Day 1",2.0 (—) percent predicted FVC
same,Change From Baseline in Percent Predicted Forced Vital Capacity (FVC),"[1]; Cohort 3: 400 mg QD, Cycle 49, Day 1",2.0 (—) percent predicted FVC
same,Change From Baseline in Percent Predicted Forced Vital Capacity (FVC),"[1]; Cohort 3: 400 mg QD, EOT",−7.8 (14.7) percent predicted FVC
same,"GSR maximal improvement 0, participants (%)",[2]; Cohort 1 200 mg QD,5 (29%) participants
same,"GSR maximal improvement 1, participants (%)",[2]; Cohort 1 200 mg QD,0 (0%) participants
same,"GSR maximal improvement 3, participants (%)",[2]; Cohort 1 200 mg QD,0 (0%) participants
same,"GSR maximal improvement from baseline −7, participants (%)",[2]; Cohort 1 200 mg QD,0 (0%) participants
same,"GSR maximal improvement −1, participants (%)",[2]; Cohort 1 200 mg QD,1 (6%) participants
same,"GSR maximal improvement −2, participants (%)",[2]; Cohort 1 200 mg QD,2 (12%) participants
same,"GSR maximal improvement −3, participants (%)",[2]; Cohort 1 200 mg QD,4 (24%) participants
same,"GSR maximal improvement −4, participants (%)",[2]; Cohort 1 200 mg QD,2 (12%) participants
same,"GSR maximal improvement −5, participants (%)",[2]; Cohort 1 200 mg QD,2 (12%) participants
same,"GSR maximal improvement −6, participants (%)",[2]; Cohort 1 200 mg QD,0 (0%) participants
same,"GSR maximal improvement 0, participants (%)",[2]; Cohort 2 200 mg BID,4 (25%) participants
same,"GSR maximal improvement 1, participants (%)",[2]; Cohort 2 200 mg BID,1 (6%) participants
same,"GSR maximal improvement 3, participants (%)",[2]; Cohort 2 200 mg BID,1 (6%) participants
same,"GSR maximal improvement from baseline −7, participants (%)",[2]; Cohort 2 200 mg BID,0 (0%) participants
same,"GSR maximal improvement −1, participants (%)",[2]; Cohort 2 200 mg BID,2 (13%) participants
same,"GSR maximal improvement −2, participants (%)",[2]; Cohort 2 200 mg BID,4 (25%) participants
same,"GSR maximal improvement −3, participants (%)",[2]; Cohort 2 200 mg BID,0 (0%) participants
same,"GSR maximal improvement −4, participants (%)",[2]; Cohort 2 200 mg BID,0 (0%) participants
same,"GSR maximal improvement −5, participants (%)",[2]; Cohort 2 200 mg BID,2 (13%) participants
same,"GSR maximal improvement −6, participants (%)",[2]; Cohort 2 200 mg BID,2 (13%) participants
same,"GSR maximal improvement 0, participants (%)",[2]; Cohort 3 400 mg QD,3 (14%) participants
same,"GSR maximal improvement 1, participants (%)",[2]; Cohort 3 400 mg QD,1 (5%) participants
same,"GSR maximal improvement 3, participants (%)",[2]; Cohort 3 400 mg QD,0 (0%) participants
same,"GSR maximal improvement from baseline −7, participants (%)",[2]; Cohort 3 400 mg QD,2 (10%) participants
same,"GSR maximal improvement −1, participants (%)",[2]; Cohort 3 400 mg QD,4 (19%) participants
same,"GSR maximal improvement −2, participants (%)",[2]; Cohort 3 400 mg QD,4 (19%) participants
same,"GSR maximal improvement −3, participants (%)",[2]; Cohort 3 400 mg QD,1 (5%) participants
same,"GSR maximal improvement −4, participants (%)",[2]; Cohort 3 400 mg QD,3 (14%) participants
same,"GSR maximal improvement −5, participants (%)",[2]; Cohort 3 400 mg QD,0 (0%) participants
same,"GSR maximal improvement −6, participants (%)",[2]; Cohort 3 400 mg QD,0 (0%) participants
